Results taken from patent publication US20100292185A1, “BETA-LACTAMASE INHIBITORS” (priority 2009, published 2010).
Where a name gives a salt, the structure may show the parent alone. Read-outs that look alike come from different tables or passages of the source.

What was measured:
[1] = system: P. aeruginosa expressing the Class B metallo β-lactamase VIM-2; test: In vitro antibacterial assay of β-lactamase inhibition (broth microdilution MIC), P. aeruginosa VIM-2; format: cell-based; conditions: in presence of Ceftazidime 16 μg/mL (Examples 1-56)
Procedure, shortened: (§1)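 CAMHB microdilution, CLSI inoculum. Cells grown 3-5 h + 50 μg/mL ampicillin. Cpd 2-fold serial, 8–0.015 μg/mL final, with β-lactam partner. 37° C, 16-20 h; visual MIC.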

KPC-2 β-lactamase = target: T1, KPC-2 β-lactamase (Klebsiella pneumoniae, UniProt Q9F663); test: β-lactamase enzyme inhibition assay (nitrocefin substrate), KPC-2; format: biochemical
T1 construct: expressed as native untagged proteins; made in house; host or cells: E. coli BL21(DE3)
T1 sequence (Q9F663 25-293 limits assumed): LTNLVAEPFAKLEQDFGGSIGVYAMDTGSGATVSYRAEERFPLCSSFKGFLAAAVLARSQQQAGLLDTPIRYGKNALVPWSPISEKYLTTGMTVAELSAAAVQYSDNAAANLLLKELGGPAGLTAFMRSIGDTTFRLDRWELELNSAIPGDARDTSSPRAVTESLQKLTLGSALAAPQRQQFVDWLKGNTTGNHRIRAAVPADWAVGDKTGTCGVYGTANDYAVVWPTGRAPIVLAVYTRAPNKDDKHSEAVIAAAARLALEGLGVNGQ
Procedure, shortened: (§2)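 Initial nitrocefin hydrolysis (100 µM final, A486 kinetic over 10 min) was measured after a 10-min, 37 °C preincubation of each purified untagged enzyme with compound at 100–0.005 µM in PBS pH 7.0. Percent inhibition relative to inhibitor-free wells gave the IC50. Enzymes were produced in E. coli BL21(DE3).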

SHV-5 β-lactamase = target: T2, SHV-5 β-lactamase (Klebsiella pneumoniae, UniProt P0A3M1); test: β-lactamase enzyme inhibition assay (nitrocefin substrate), SHV-5; format: biochemical
T2 construct: expressed as native untagged proteins; made in house; host or cells: E. coli BL21(DE3)
T2 sequence (P0A3M1 22-286): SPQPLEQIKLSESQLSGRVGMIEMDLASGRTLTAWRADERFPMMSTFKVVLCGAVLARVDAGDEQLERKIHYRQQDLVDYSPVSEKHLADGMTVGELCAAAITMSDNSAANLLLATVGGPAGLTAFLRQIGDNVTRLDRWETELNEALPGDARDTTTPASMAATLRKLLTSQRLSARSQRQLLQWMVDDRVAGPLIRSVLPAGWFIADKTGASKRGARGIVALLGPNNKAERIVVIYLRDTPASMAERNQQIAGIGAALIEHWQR
Procedure, shortened: as §2

p99 AmpC β-lactamase = target: T3, p99 AmpC β-lactamase (Enterobacter cloacae, UniProt P05364); test: β-lactamase enzyme inhibition assay (nitrocefin substrate), P99 AmpC; format: biochemical
T3 construct: expressed as native untagged proteins; made in house; host or cells: E. coli BL21(DE3)
T3 sequence (P05364 21-381): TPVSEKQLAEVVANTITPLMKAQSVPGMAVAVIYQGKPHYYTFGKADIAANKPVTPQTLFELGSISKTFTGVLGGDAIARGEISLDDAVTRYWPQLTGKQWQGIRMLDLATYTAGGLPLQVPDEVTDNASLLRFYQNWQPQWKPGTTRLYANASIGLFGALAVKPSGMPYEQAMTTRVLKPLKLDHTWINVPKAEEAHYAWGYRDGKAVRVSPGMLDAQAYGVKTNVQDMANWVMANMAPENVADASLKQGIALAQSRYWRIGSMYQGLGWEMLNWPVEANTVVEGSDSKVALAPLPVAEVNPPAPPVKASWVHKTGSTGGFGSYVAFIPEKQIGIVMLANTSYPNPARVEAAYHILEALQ
Procedure, shortened: as §2

[2] = target: T4, VIM-2 metallo β-lactamase (Pseudomonas aeruginosa, UniProt Q9K2N0); test: β-lactamase enzyme inhibition assay (nitrocefin substrate), VIM-2; format: biochemical
T4 construct: made in house
Protocol: Isolation of β-lactamases. For SHV-5, p99 AmpC, KPC-2 and CTX-M15 β-lactamases, E. coli BL21(DE3) bacterial cells carrying expression plasmids (expressed as native untagged proteins) for the individual β-lactamases were grown in 1 L of Superbroth (Teknova Inc. Hollister, Calif.) supplemented with 100 μg/ml kanamycin and 1×5052 (0.5% glycerol, 0.05% glucose and 0.2% α-lactose) at 35° C. for 18-20 hours. Cells were harvested by centrifugation (4,000×g, 4° C., 20 min), and resuspended in 50 ml of 10 mM HEPES pH 7.5 (1/20 of the initial volume). The cells were lysed by sonication (5 pulses of 45 seconds) at 45 W on ice. The lysates were clarified by centrifugation at 10,000×g for 40 minutes at 4° C. Samples were diluted 5-fold in 50 mM sodium acetate pH 5.0, stored overnight at 4° C., after which they were centrifuged at 10,000×g for 30 minutes to clarify, and filtered through 0.45 μm filters. The samples were loaded onto a 5 ml Capto S sepharose cation exchange column (GE Healthcare) pre-equilibrated with 50 mM sodium acetate pH 5.0. The column was washed with 5 column volumes of 50 mM sodium acetate pH 5.0 to wash out unbound protein and a linear gradient of NaCl (0 to 500 mM) was used to elute the protein (over 16 CV) from the column. Fractions were assayed for β-lactamase activity using Centa (Calbiochem, Gibbstown, N.J.) as a reporter β-lactamase substrate for activity in the isolated fractions. Active fractions were pooled, concentrated and further purified by gel filtration chromatography on a Superdex 75 prep grade gel filtration column (GE Healthcare, Piscataway, N.J.) pre-equilibrated in 50 mM Hepes pH 7.5, 150 mM NaCl. Active fractions were pooled concentrated, quantitated by BCA protein determination (Thermo Scientific, Rockford, Ill.), and frozen at −80° C. in 20% glycerol until use.
For VIM-2 metallo (β-lactamase, the procedure was identical with the following exceptions: 1) the protein was not pH adjusted to pH 5 with 50 mM sodium acetate, 2) the chromatography step was changed to a 5 ml Q sepharose anion exchange column pre-equilibrated with 50 mM Hepes pH 7.5, and 3) elution of the protein was achieved by a linear gradient of NaCl (0-600 mM). Finally, the VIM-2 purification required a second run (3rd step) on the Q sepharose anion exchange column to achieve acceptable purity (>90%).
(§3) β-lactamase Inhibition. To determine the level of inhibition of β-lactamase enzymes, compounds were diluted in PBS at pH 7.0 to yield concentrations between 100 and 0.005 μM in microtiter plates. An equal volume of diluted enzyme stock was added, and the plates were incubated at 37° C. for 10 min. Nitrocefin solution was then dispensed as substrate into each well at a final concentration of 100 μM, and the plates were immediately read with the kinetic program at 486 nm for 10 min on the SPECTRAMAX® Plus^384 (high-throughput microplate spectrophotometer; Molecular Devices Corp., Sunnyvale, Calif.). Maximum rates of metabolism were then compared to those in control wells (without inhibitors), and percentages of enzyme inhibition were calculated for each concentration of inhibitor. The concentration of inhibitor needed to reduce the initial rate of hydrolysis of substrate by 50% (IC50) was calculated as the residual activity of β-lactamase at 486 nm using the SoftMax Pro 5.0 software (Molecular Devices Corp.).
Using the methodology described above, examples of the current invention were evaluated for their ability to inhibit β-lactamase enzymes. The results of these assays are summarized in Table 2 for representative enzymes across different subtypes (note SHV-5 and CTXM-15 exemplify different subclasses of Ambler Class A Extended Spectrum Beta Lactamases, KPC-2 exemplifies Class A carbapenemases, P99 represents chromosomal Class C AmpC, VIM-2 exemplifies subclass B1 of metallo-β-lactamases, and OXA-23 represents chromosome-encoded Class D oxacillin-hydrolyzing β-lactamases), NT=not tested.

OXA-23 β-lactamase = target: T5, OXA-23 β-lactamase (Acinetobacter baumannii, UniProt Q9L4P2); test: β-lactamase enzyme inhibition assay (nitrocefin substrate), OXA-23 crude extract; format: biochemical
T5 construct: crude β-lactamase extracts were prepared from 20 ml overnight cultures; endogenous in cells; host or cells: Acinetobacter baumannii cells containing OXA-23 (crude freeze-thaw extract)
T5 sequence (Q9L4P2 18-273): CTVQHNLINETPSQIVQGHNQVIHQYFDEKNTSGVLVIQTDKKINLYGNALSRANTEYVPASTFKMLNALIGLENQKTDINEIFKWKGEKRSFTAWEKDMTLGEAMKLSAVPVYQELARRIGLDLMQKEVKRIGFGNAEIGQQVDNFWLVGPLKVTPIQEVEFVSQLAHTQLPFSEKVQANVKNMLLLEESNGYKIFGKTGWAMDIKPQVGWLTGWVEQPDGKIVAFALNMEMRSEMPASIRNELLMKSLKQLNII
Protocol: For OXA-23 β-lactamase, crude β-lactamase extracts were prepared from 20 ml overnight cultures with shaking. Acenitobacter baumanni cells containing OXA-23 were further diluted 10-fold and grown to mid-log phase (OD at 600 nm, 0.5-0.8) in Mueller-Hinton II (MH-II) broth at 37° C. The cells were pelleted at 5000 g, washed and resuspended in 2 mL PBS pH 7.0. The β-lactamases were extracted by four cycles of freezing and thawing followed by centrifugation. β-lactamase activity in the extracts was measured with the chromogenic cephalosporin nitrocefin. The amount of protein in each β-lactamase preparation was determined by the bicinchoninic acid (BCA) assay.
as §3

[3] = system: E. coli expressing the Class A ESBL SHV-5; test: In vitro antibacterial assay of β-lactamase inhibition (broth microdilution MIC), E. coli SHV-5; format: cell-based; conditions: in presence of Ceftazidime 8 μg/ml (Examples 1-56)
Procedure, shortened: as §1

[4] = system: K. pneumoniae expressing the Class A Extended Spectrum Beta-Lactamase (ESBL) CTX-M-15; test: In vitro antibacterial assay of β-lactamase inhibition (broth microdilution MIC), K. pneumoniae CTX-M-15; format: cell-based; conditions: in presence of Ceftazidime 8 μg/ml (Examples 1-56)
Procedure, shortened: as §1

[5] = system: K. pneumoniae expressing the Class A carbapenemase KPC-2; test: microbe, parasite or virus in culture; format: cell-based; conditions: in presence of Ceftazidime 8 μg/ml (Examples 1-56)
Procedure, shortened: as §1

[6] = system: E. cloacae expressing the Class C P99+; test: In vitro antibacterial assay of β-lactamase inhibition (broth microdilution MIC), E. cloacae P99+; format: cell-based; conditions: in presence of Ceftazidime 8 μg/ml (Examples 1-56)
Procedure, shortened: as §1

CTX-M15 β-lactamase = target: T6, CTX-M15 β-lactamase (Escherichia coli, UniProt Q9EXV5); test: β-lactamase enzyme inhibition assay (nitrocefin substrate), CTXM-15; format: biochemical
T6 construct: expressed as native untagged proteins; made in house; host or cells: E. coli BL21(DE3)
T6 sequence (Q9EXV5 entry or part of it): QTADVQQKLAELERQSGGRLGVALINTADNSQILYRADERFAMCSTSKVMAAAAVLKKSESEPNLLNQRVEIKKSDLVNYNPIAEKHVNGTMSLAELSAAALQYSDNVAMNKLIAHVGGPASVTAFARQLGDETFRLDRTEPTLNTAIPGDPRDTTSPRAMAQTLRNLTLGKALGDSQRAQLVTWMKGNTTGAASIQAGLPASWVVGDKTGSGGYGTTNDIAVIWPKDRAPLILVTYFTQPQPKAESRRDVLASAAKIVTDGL
Procedure, shortened: as §2

[7] = nitrocefin 100 μM, 37° C., PBS pH 7.0, read-out: P99 AmpC IC50
[8] = nitrocefin 100 μM, 37° C., PBS pH 7.0, read-out: VIM-2 IC50
[9] = nitrocefin 100 μM, 37° C., PBS pH 7.0, read-out: OXA-23 IC50

Row | Structure (SMILES) | MIC of example compound, P. aeruginosa VIM-2 [1] [µg/mL] | IC50 (KPC-2 β-lactamase) [nM] | IC50 (SHV-5 β-lactamase) [nM] | IC50 (p99 AmpC β-lactamase; [7]) [nM] | IC50 [2, 8] [nM] | IC50 (OXA-23 β-lactamase; [9]) [nM] | MIC of example compound, E. coli SHV-5 [3] [µg/mL] | MIC of example compound, K. pneumoniae CTX-M-15 [4] [µg/mL] | MIC of example compound, K. pneumoniae KPC-2 [5] [µg/mL] | MIC of example compound, E. cloacae P99+ [6] [µg/mL] | IC50 (CTX-M15 β-lactamase) [nM] | IC50 (p99 AmpC β-lactamase) [nM] | IC50 [2] [nM] | IC50 (OXA-23 β-lactamase) [nM]
1 | CN(C)Cc1ccc(C(=O)N[C@@H](Cc2cccc(C(=O)O)c2O)B(O)O)cc1 [Example 4, 2(R)-3-[2-(4-(N,N-Dimethylaminomethyl)benzoylamino)-2-borono-ethyl]-2-hydroxy-benzoic acid formate salt] | >8 | 4 | 0.6 | 3 | > 1000 | 99 | 1 | 0.25 | 0.06 | 2 | 3 |  |  | 
2 | Cl.O=C(N[C@@H](Cc1cccc(C(=O)O)c1O)B(O)O)c1ccc(N2CCNCC2)nc1 [Example 9, (2R)-3-{2-[(2-(1-piperazinyl)-pyridine-5-carbonyl)-amino]-2-borono-ethyl}-2-hydroxy-benzoic acid hydrochloride] | >8 | 6 | > 1000 | 2 | 242 | > 1000 | 4 | 1 | <0.01 | 0.25 | 83 |  |  | 
3 | CC(=O)Nc1ccc(C(=O)N[C@@H](Cc2cccc(C(=O)O)c2O)B(O)O)cn1 [Example 10, (2R)-3-{2-[(2-(acetylamino)-pyridine-5-carbonyl)-amino]-2-borono-ethyl}-2-hydroxy-benzoic acid] | >8 | 4 | 319 | 3 | 680 | 580 | 1 | 0.25 | 0.01 | 0.5 | 3 |  |  | 
4 | CNCc1ccc(C(=O)N[C@@H](Cc2cccc(C(=O)O)c2O)B(O)O)cc1.Cl [Example 11, (1R)-[4-(methylamino)methyl]-benzoylamino-(3-carboxy-2-hydroxy)benzyl-methyl boronic acid hydrochloride] | 8 | 4 | > 1000 | 1 | 57 | > 1000 | 8 | 1 | <0.01 | 0.25 | 4 |  |  | 
5 | Cl.O=C(N[C@@H](Cc1cccc(C(=O)O)c1O)B(O)O)c1ccc(CN2CCCC(C(=O)O)C2)cc1 (stereo partly drawn) [Example 12, (1R)-[4-(piperidine-3-carboxylic acid)-methyl]-benzoylamino-(3-carboxy-2-hydroxy)benzyl-methyl boronic acid hydrochloride] | >8 | 11 | 870 | 900 | 930 | > 1000 | 4 | 1 | 0.03 | 2 | 3 |  |  | 
6 | CC[N+](CC)(CC)Cc1ccc(C(=O)N[C@@H](Cc2cccc(C(=O)O)c2O)B(O)O)cc1 [Example 13, (1R)-(4-(triethylammonium)methyl)-benzoylamino-(3-carboxy-2-hydroxy)benzyl-methyl boronic acid bromide] | >8 | 3 | > 1000 |  |  |  | >8 | >8 | 0.25 | >8 | 14 | 4 | 340 | > 1000
7 | O=C(N[C@@H](Cc1cccc(C(=O)O)c1O)B(O)O)c1ccc(C[n+]2ccccc2)cc1 [Example 14, (1R)-[4-(pyridinium)-methyl]-benzoylamino-(3-carboxy-2-hydroxy)benzyl-methyl boronic acid chloride] | >8 | 21 | > 1000 |  |  |  | >8 | >8 | 0.01 | 0.5 | 1 | 29 | 360 | > 1000
8 | Cl.NCCNCc1ccc(C(=O)N[C@@H](Cc2cccc(C(=O)O)c2O)B(O)O)cc1 [Example 15, (1R)-[4-(2-amino-ethylamino)-methyl]-benzoylamino-(3-carboxy-2-hydroxy)benzyl-methyl boronic acid hydrochloride] | >8 | 18 | > 1000 | 5 | 47 | > 1000 | 4 | 0.25 | 0.01 | 4 | 7 |  |  | 
